Measured values as given in patent publication US20230365570A1, “COMPOUNDS WITH GLUCOCORTICOID SPARING EFFECTS AND USES THEREOF” (The Regents of the University of California, priority 2020, published 2023).

Legend:
Assay type in all cases: cell-based, human
THP-1 cells [1] = assay: TNF stimulated CXCL8 release by THP-1 cells; conditions: TNF 2 ng/ml, overnight (FIG. 3B)
Description: THP-1 cells (10^5 cells/200 μL/well) and RA FLS (104/200 μL/well) were plated in 96 well plates and pre-treated with compound or vehicle for 1 h and then stimulated with either LPS (10 ng/ml), 1L-1ß (2 ng/ml) or TNF (2 ng/ml for THP-1 and 1 ng/ml for RA FLS). After 18 h of incubation, supernatants were collected and the levels of cytokines and chemokines in the culture supernatants were measured by ELISA according to the manufacturer's protocols (R&D systems, Minneapolis, MN).
The lead compounds belonging to chemotypes 1, 3, and 5 were tested for potency in suppressing chemokine and cytokine production by THP-1 cells in the presence of different inflammatory stimuli. The production of CXCL8 induced by either LPS (10 ng/ml), IL-1ß (2 ng/ml), or TNF (2 ng/ml) and TNF induced by IL-1ß (2 ng/ml) was assessed using serially diluted compounds. The compounds except 1-2 reduced the level of CXCL8 production stimulated by LPS in a dose dependent manner (FIG. 3A). However, the compounds from chemotype 5 enhanced CXCL8 release by THP-1 cells when stimulated with IL-111, or TNF (FIGS. 3B, C). […] The 1Cs0 for 1-1, 1-2 and 3-1 for IL-1ß stimulated CXCL8 release included 400, 1770, and 2020 nM, respectively, (FIG. 3C).

THP-1 cells [2] = assay: Combination and synergy of compounds with DEX, CXCL8 release by TNF stimulated THP-1 cells
Description: Drug synergy analysis was performed using lsobologram plots which were calculated according to reported procedures to compute IC50 and determine synergism. IC50 is computed from the median effect equation. Synergism analysis is carried out using the Combination index (Cl)-isobol method. Data analysis was performed using the CompuSyn software available on combisyn.com, Detailed methodology was used as described in a prior report. Briefly, the median-effect equation is computed to obtain the linear regression for the effect of inhibitors DEX and 1−1 as Fa/Fu=(D/D50)^m, where D is the dose; Fa and Fu is the fraction of the inhibition and uninhibited response by the dose D (Fa+Fu=1); D50 is the dose producing the median effect (i.e, IC50). The constant m determines the shape of the dose-effect curve. The median-effect equation in logarithmic form is log (Fa/Fu) =m log(D)−m log (D50) which essentially represents a linear relationship between log(Fa/Fu) and log(D). […] This is followed by Cl-isobol method to quantitatively assess the synergism between these inhibitor drugs. A combination index (Cl) is estimated from dose-effect data of single and combined drug treatments. A value of C; less than one indicates synergism; Cl=1 indicates additive effect; and Cl>1 indicates antagonism. Drug interaction (synergism or antagonism) is more pronounced the further a CI value is from 1. […] The doses Dx1 and Dx2 were estimated from the median effect equation above for single drug treatments. From the median effect equation, the estimated dose (i.e., D) necessary to produce the inhibition (i.e., Fa, Fu) obtained by the combination was calculated. The results are presented as a normalized isobolograrn. A point in the isobologram represents the effect of a drug(s) treatment.
To assess whether the remaining candidate compounds would provide additional benefit to a low dose of glucocorticoid, THP-1 cells were stimulated with TNF and treated them with serially diluted compounds and 100 nM DEX (FIGS. 4A-C). […] Next whether there was an additive or synergistic effect with these three compounds and DEX was formally addressed. […] The four CXCL8 levels below the maximum plateau were used to calculate an isobologram (FIG. 5D).

RA FLS = assay: Synergy of compound 1-1 with DEX in TNF stimulated RA FLS (isobologram)
Description: Drug synergy analysis was performed using lsobologram plots which were calculated according to reported procedures to compute IC50 and determine synergism. IC50 is computed from the median effect equation. Synergism analysis is carried out using the Combination index (Cl)-isobol method. Data analysis was performed using the CompuSyn software available on combisyn.com, Detailed methodology was used as described in a prior report. […] This is followed by Cl-isobol method to quantitatively assess the synergism between these inhibitor drugs. […] From the median effect equation, the estimated dose (i.e., D) necessary to produce the inhibition (i.e., Fa, Fu) obtained by the combination was calculated. […]
In the pathogenesis of rheumatoid arthritis, fibroblast-like synoviocytes (RA FLS) are a primary source of inflammatory cytokines and chemokines in inflamed joints. The immunomodulatory effects and cytotoxicity of compound 1-1 on RA FLS was analyzed. […] To assess the synergistic effect of compound 1-1 with DEX in RA FLS, IL-6 and CXCL8 suppression was analyzed by co-titrating DEX and compound 1-1 in cultures with TNF stimulated RA FLS (FIG. 7A, B).

Cc1ccc(-n2ncc3c(NC4CCCCC4)ncnc32)c(C)c1 [Compound 1-1]
IC50 (THP-1 cells [1]): 900 nM | Effect of addition of DEX on CXCL8 production (THP-1 cells [2]; TNF 2 ng/ml stimulated THP-1 cells, serially diluted compound plus 100 nM DEX (FIGS. 4A-C)): significantly reduced the CXCL8 production at all of the effective doses | Synergy with DEX, isobologram of potency ratios for CXCL8 (THP-1 cells [2]; TNF stimulated THP-1 cells, compound and DEX titrated at same molarity (FIG. 5D)): demonstrating synergy | IC50 (THP-1 cells [2]; TNF stimulated THP-1 cells, single agents (FIG. 5A), read-out: IC50 for TNF stimulated CXCL8 release (titration with DEX)): 968 nM | Synergistic effect with DEX, CXCL8 release (RA FLS; isobologram (FIG. 7C)): synergistic effects | Synergistic effect with DEX, IL-6 release (RA FLS; isobologram (FIG. 7D)): synergistic effects
